# Reference: US20110275606A1, “SUBSTITUTED PORPHYRINS” (DUKE UNIVERSITY, priority 2009, published 2011)
# Key:
# [1] = Thin layer chromatography Rf (lipophilicity); type: physicochemical; conditions: thin-layer silica, saturated KNO3(aq):H2O:MeCN (1:1:8); measure of lipophilicity
# Experimental: Thin layer chromatography (TLC) was carried out in polyester-backed silica-gel sheets without fluorescent indicator (Sigma-Aldrich Z122777-25EA) cut into ˜2×20 cm strips and eluted with a saturated KNO3(aq):H2O:MeCN (1:1:8, v/v/v) mixture in a capped 1 L chamber. Typically, 1 microliter of ˜1 mM samples were applied at ˜1 cm of the strip border and the solvent front was allowed to run ˜12 cm.
# (§1) Table indicating the redox properties (E1/2 of the Mn^IIIP/Mn^IIP redox couple) and antioxidant (log kcat for the dismutation of superoxide, O2′^−) properties of ortho and meta isomers of Mn N-substituted pyridylporphyrins. The E1/2 and log kcat were determined as described in Reboucas et al., Dalton Trans., 2008, 1233-42. Rf is the ratio of the drug path over solvent path on thin-layer silica with water/acetonitrile/KNO3 saturated water and is a measure of […]. […] In addition, as the length of the pyridyl substituent increases the SOD activity of the ortho compounds drops while there is no change in the SOD activity of the meta compounds.
# Rf is a measure of lipophilicity and is linearly related to log P where P is the partition coefficient between water and n-octanol. (Kos et al., Free Radic. Biol. Med., 47, 72-78, 2009, which is incorporated by reference herein).
# [2] = Redox properties: E1/2 of the Mn^IIIP/Mn^IIP redox couple; type: physicochemical
# Experimental: as §1
# [3] = Antioxidant properties: log kcat for the dismutation of superoxide (SOD activity); type: biochemical
# Experimental: as §1
# WT cells = assay: XTT cell proliferation, radiation-induced cytotoxicity; type: cell-based; conditions: 5 Gy, 48 hours post-radiation, compared to untreated irradiated WT cells
# Experimental: XTT, a tetrazolium salt, is used to measure cell viability after irradiation exposure. XTT is reduced by viable mitochondria to formazan, which causes a colorimetric change that can be measured at 450 nm. Approximately 5×10^4 cells are seeded per well in 96-well plates and incubated for 18 hours in fresh medium along with the compound at the final concentration indicated (3 replicates each). One set of plates is used as an unirradiated control and the other set was irradiated with 5 Gy. Five Gy is the optimal dose for observing efficient cytotoxicity within 48 hours. An XTT cell proliferation kit (Roche) is used to measure this cytotoxicity. All assays are performed in triplicate and the absorbance is read on a Spectramax plate reader. XTT is used to assess both the toxicity of the compounds and the effect of each compound on IR-induced cytotoxicity. All cells are pre-treated with the indicated compound two hours prior to being irradiated with 5 Gy and are assayed for viability 48 hours post-radiation.
# wild type cells = assay: Annexin V/propidium iodide post-radiation apoptosis, wild type cells; type: cell-based; conditions: 5 Gy
# Experimental: (§2) Annexin V/propidium iodide staining is used as a second method to measure radiation-induced cytotoxicity. Cells are incubated in fresh medium along with the compounds at the final concentrations indicated. One set of samples is irradiated (5 Gy) to efficiently induce apoptosis within 48 hours. An annexin V/propidium iodide kit (BioVision) is used to detect apoptotic cells. The annexin V is labeled with fluorescein isothiocyanate (FITC) to detect phospholipid phosphatidylserine (PS) on the outer membrane of apoptotic cells; propidium iodide (PI) is used to detect necrotic cells. The assay is performed according to the manufacturer's instructions. Briefly, approximately 5×10^5 cells are washed in PBS, resuspended in annexin V and PI staining solution for 15 min at room temperature and analyzed immediately by flow cytometry (Flow Cytometry Core, UCLA). Annexin V and propidium iodide staining is used to measure post-radiation apoptosis.
# A-T cells = assay: Annexin V/propidium iodide post-radiation apoptosis, A-T cells; type: cell-based; conditions: 5 Gy
# Experimental: as §2
# Wildtype (WT) cells = assay: Gamma H2AX immunofluorescence, radiation-induced DNA damage; type: cell-based; conditions: 2 Gy, assessed at 15 minutes
# Experimental: Radiation-induced DNA damage recognition is measured by γ-H2AX immunofluorescence. Wildtype (WT) cells are propagated in fresh medium with the compounds at specified concentrations. […] WT cells are collected at log phase of their growth cycle, after an 18-hour incubation with the indicated compounds. After treatment, the cells are irradiated with 2 Gy and assessed at 15 minutes. These conditions maximize the yield of DNA damaged cells while minimizing cytotoxicity. The cells are dropped onto cover slips and fixed with 4% paraformaldehyde, semi-permeabilized with 0.5% Triton-X 100 and washed with PBS. Cells are incubated with 1:400 dilution of mouse monoclonal antibody to γ-H2AX (Upstate Biotechnology), followed by 1:200 dilution of goat anti-mouse IgG antibody to immunoglobulin labeled with FITC (Jackson Immunochemicals) in PBS containing 10% FBS for 1.5 and 1 h, respectively. Slides are analyzed for γ-H2AX nuclear foci formation with FISH analysis software (Vysis) on a Leica DM RXA automated microscope equipped with Photometrix SenSyn. All slides are coded by one person and read blindly by another.
# CD1 male mice = assay: Carrageenan-induced pleurisy; type: in vivo; conditions: 0.3 mg/kg; 4 h after carrageenan
# Experimental: Pleurisy is induced by carrageenan. Six to eight week old CD1 male mice are used. The mice are anesthetized with isoflurane and a skin incision is made at the level of the left sixth intercostal space. The underlying muscle is dissected and saline (0.2 ml) or saline containing 1% (w/v) λ-carrageenan (Sigma-Aldrich Ltd, 0.2 ml) is injected into the pleural cavity. The skin incision is closed with a suture and the animals are allowed to recover. At 4 h after the injection of carrageenan, the animals are killed. The chest is carefully opened and the pleural cavity is rinsed with 2 ml of saline solution containing heparin (5 U/ml) and indomethacin (10 μg/ml). The exudate and washing solution is removed by aspiration and the total volume is measured. Any exudate, which is contaminated with blood, is discarded. The amount of exudate is calculated by subtracting the volume injected (2 ml) from the total volume recovered. The leukocytes in the exudate are suspended in phosphate-buffer saline (PBS, 0.01M, pH7.4) and counted with an optical microscope in a Burker's chamber after vital Trypan Blue staining.
# Male Sprague-Dawley rats = assay: Carrageenan-induced paw oedema; type: in vivo; conditions: 0.3 mg/kg; rat paw
# [4] = system: B16F10 melanoma cell line; assay: Hyperthermia plus Mn porphyrin, tumor growth delay; type: in vivo, C57/BL6 mice; conditions: combination with hyperthermia (1d, 5d, 8d); 5 mg/kg twice per day; sacrifice day 9
# Experimental: Treatment with hyperthermia and Mn porphyrins leads to a significant delay in tumor growth. In C57/BL6 mice, B16F10 melanoma cell line ([…]) is implanted in right flank. […] Tumor volumes are measured. Animals are sacrificed at day 9.
# [5] = system: 4T1 window chamber tumors; assay: Radiosensitivity of tumor vasculature in vivo (window chamber); design: species or system mice; conditions: combined with radiation 3 x 5 Gy; 6 mg/kg/day for three days; between 48 and 72 hours post-radiation
# Experimental: 4T1 window chamber tumors are randomized to treatment with PBS or MnTE-2-PyP^5+, and radiation or sham-irradiation. […] Tumors are imaged immediately after radiation (0 hours), and every day thereafter (24, 48, and 72 hours), and these images are used to calculate the tumor vascular length densities.
# Mice are anesthetized with sodium pentobarbital (80 mg/kg, i.p.), and a 1-cm diameter circular incision is made in the dorsal skin flap, over which a titanium chamber is surgically implanted. A 10-μL suspension of tumor cells (5×10^3 cells) is then injected into the opposing flap of skin. […] Observations of window chamber tumors are performed daily on restrained, unanaesthetized mice with an inverted Zeiss fluorescence microscope (Carl Zeiss, Jena, Germany). Images are captured onto a personal computer with Scion Image software (Frederick, Md.) and analyzed with Adobe Photoshop (San Jose, Calif.). Tumor volume and vascular length densities are calculated as follows. Briefly, tumor volumes are calculated with the formula: d^2(3.14/2), where the diameter is determined from low-power (2.5×) microscopy images by comparing pixel dimensions with micrometer values. Vascular length densities are measured from medium-power (5×) fields by using image analysis software (Scion Image) to trace the vascular network. […]
# SOD-deficient E. coli = assay: Aerobic growth of SOD-deficient E. coli in minimal medium (turbidimetry at 700 nm); type: cell-based, Escherichia coli; conditions: 20 and 30 μM, 19th hour, positive control MnTE-2-PyP^5+
# Experimental: Escherichia coli (E. coli) strains used were AB1157, wild type (F-thr-1; leuB6; proA2; his-4; thi-1; argE2; lacY1; galK2; rpsL; supE44; ara-14; xyl-15; mtl-1; tsx-33), and JI1132, SOD-deficient, sodA-sodB-(same as AB1157 plus (sodA::mudPR13)25 (sodB-kan)1-Δ2). Both strains were obtained from J. A. Imlay. In addition to AB/JI strains another strain GC and its SOD-deficient analogue QC were used. The experiments were carried out as described in more detail in Reboucas et al., Dalton Trans., 2008, 1233-42. Briefly, cultures were grown aerobically in a 5 amino acid restricted medium (L-leucine, L-threonine, L-proline, L-arginine, L-histidine) in flasks on a water bath shaker at 37° C. and 200 rpm. The effect of the compound of Example 1 on the growth of these strains was followed turbidimetrically at 700 nm (to minimize the interference of compounds studied) and compared to the growth curves of both strains in the absence of Mn porphyrin (controls). Deionized water was used throughout the study. The effects are shown in FIG. 2 for one strain (QC and GC) and in FIG. 3 for other strain (AB and JI). […] The effects varied with the type of the strain.
Compound,Rf [1],E1/2 [2],logkcat [3],reduction of IR-induced cytotoxicity (WT cells),reduction in the percentage of apoptotic cells after radiation exposure (wild type cells),reduction in the percentage of apoptotic cells after radiation exposure (A-T cells),reduction of IR-induced γ-H2AX immunofluorescent nuclear foci (IRIFs) (Wildtype (WT) cells),decrease of myeloperoxidase activity (CD1 male mice),decrease of number of polymorphonuclear cells (CD1 male mice),decrease of volume of exudates (CD1 male mice),decrease of myeloperoxidase activity (Male Sprague-Dawley rats),decrease of number of polymorphonuclear cells (Male Sprague-Dawley rats),delay of tumor growth [4],tumor devascularization (vascular length density) [5],protecting E. coli compared with MnTE-2-PyP^5+ (FIG. 3) (SOD-deficient E. coli; SOD-deficient strain JI / wild type AB),protecting E. coli compared with MnTE-2-PyP^5+ (FIG. 2) (SOD-deficient E. coli; SOD-deficient strain QC / wild type GC)
OCCC[n+]1ccccc1-c1c2nc(c(-c3cccc[n+]3CCCO)c3ccc([nH]3)c(-c3cccc[n+]3CCCO)c3nc(c(-c4cccc[n+]4CCCO)c4ccc1[nH]4)C=C3)C=C2 [H2TnPrOH-2-PyP],0.09,,,,,,,,,,,,,,,
OCCC[n+]1cccc(-c2c3nc(c(-c4ccc[n+](CCCO)c4)c4ccc([nH]4)c(-c4ccc[n+](CCCO)c4)c4nc(c(-c5ccc[n+](CCCO)c5)c5ccc2[nH]5)C=C4)C=C3)c1 [H2TnPrOH-3-PyP],0.1,,,,,,,,,,,,,,,
MnTnPrOH-2-PyP^5+,0.05,+238 mV,7.38,50%,60%,40%,57%,to control levels,to control levels,to control levels,to control levels,to control levels,Full delay of tumor growth,significant tumor devascularization,,
MnTnPrOH-3-PyP^5+,,+52 mV,6.83,50%,60%,40%,57%,to control levels,to control levels,to control levels,to control levels,to control levels,Full delay of tumor growth,significant tumor devascularization,better,similar
